pEC50: −log10 of the molar value.
Legend:
Assay type in all cases: cell-based
A549 [1] = experiment: MECP in cancer cell line; conditions: Homo sapiens
In short: (§1)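 Imaging read-out (IN-Cell 2000): mitotic index at 24 h, polyploidy/DNA content at 48 h, also 72 h. Cells in DMEM/5% FBS, 37 °C, 5% CO2; compound 1 nM–30 μM. Binned A ≤1.0 μM, B ≤10.0 μM, C ≤30.0 μM, D >30.0 μM.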

DU145 = experiment: MTT assay of cellular proliferation; conditions: Homo sapiens, DU-145, 50% inhibition of cellular proliferation
In short: (§2)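 MTT viability readout, formazan OD 570 nm after 3-4 h dye incubation. Cells seeded 15-24 h to 20-30% confluence, dosed 1 nM-30 μM. DMEM/5% FBS, 37 °C, 5% CO2. EC50 = concentration giving 50% proliferation inhibition.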

A549 [2] = experiment: MTT assay of cellular proliferation; conditions: Homo sapiens, 50% inhibition of cellular proliferation
In short: as §2

NCI-N87 [3] = experiment: MTT assay of cellular proliferation; conditions: Homo sapiens, 50% inhibition of cellular proliferation
In short: as §2

Calu-6 = experiment: MTT assay of cellular proliferation; conditions: Homo sapiens; Calu-6, MTT, 50% inhibition of cellular proliferation
In short: as §2

NCI-H2170 = experiment: MTT assay of cellular proliferation; conditions: Homo sapiens, 50% inhibition of cellular proliferation
In short: as §2

NCI-N87 [4] = experiment: MECP in cancer cell line; conditions: Homo sapiens
In short: as §1

SW480 [5] = experiment: MECP in cancer cell line; conditions: Homo sapiens
In short: as §1

SW480 [6] = experiment: MTT assay of cellular proliferation; conditions: Homo sapiens, 50% inhibition of cellular proliferation
In short: as §2

Compound	pEC50 (DU145)	pEC50 (A549 [2])	pEC50 (Calu-6)	pEC50 (NCI-H2170)	pEC50 (SW480 [6])	minimal effective concentration (A549 [1])	pEC50 (NCI-N87 [3])	minimal effective concentration (NCI-N87 [4])	minimal effective concentration (SW480 [5])
COC(=O)c1cc(OC)cc(Oc2ncnc3cc(OC)c(OC)cc23)c1 [Compound 29]	6.00 to 9.00	< 4.52	6.00 to 9.00	6.00 to 9.00	5.00 to 6.00	1 to 10 µM	6.00 to 9.00	0.001 to 1 µM	1 to 10 µM
COC(=O)c1cc(Oc2ncnc3ccsc23)cc(C(=O)OC)c1 [Compound 39, dimethyl 5-(thieno[3,2-d]pyrimidin-4-yloxy)isophthalate]	6.00 to 9.00	< 4.52	6.00 to 9.00	5.00 to 6.00		1 to 10 µM	6.00 to 9.00	0.001 to 1 µM	
COC(=O)c1cc(OC)cc(Oc2ncnc3ccsc23)c1 [Compound 37, methyl 3-methoxy-5-(thieno[3,2-d]pyrimidin-4-yloxy)benzoate]	6.00 to 9.00	< 4.52	6.00 to 9.00	6.00 to 9.00	6.00 to 9.00	1 to 10 µM	6.00 to 9.00	0.001 to 1 µM	0.001 to 1 µM

Further lines, with some results ahead:

pEC50 (DU145)	pEC50 (A549 [2])	pEC50 (Calu-6)	pEC50 (NCI-H2170)	pEC50 (SW480 [6])	Compound	minimal effective concentration (A549 [1])	pEC50 (NCI-N87 [3])	minimal effective concentration (NCI-N87 [4])	minimal effective concentration (SW480 [5])
6.00 to 9.00	< 4.52	6.00 to 9.00	6.00 to 9.00		COC(=O)c1cc(Oc2ncnc3cc[nH]c23)cc(C(=O)OC)c1 [Compound 36, dimethyl 5-((5H-pyrrolo[3,2-d]pyrimidin-4-yl)oxy)isophthalate]	1 to 10 µM	6.00 to 9.00	0.001 to 1 µM	
6.00 to 9.00	< 4.52	6.00 to 9.00	6.00 to 9.00	5.00 to 6.00	COC(=O)c1cc(OC)cc(Oc2ncnc3cc[nH]c23)c1 [Compound 34, methyl 3-((5H-pyrrolo[3,2-d]pyrimidin-4-yl)oxy)-5-methoxybenzoate]	1 to 10 µM	6.00 to 9.00	0.001 to 1 µM	0.001 to 1 µM
